The text below walks through data of ChEMBL document CHEMBL1799917, “Isolation, sequencing, and structure-activity relationships of cyclotides” (J Nat Prod, 2010).

Where a SMILES comes first, the peptide text is derived from it. Bridges are numbered along the chain shown (N, C = ends).

This test has as its system CEM-SS (Homo sapiens). Description: Cytotoxicity against human CEM-SS cells.
In turn, `CC[C@H](C)[C@@H]1NC(=O)[C@H](C)NC(=O)[C@H](C)NC(=O)[C@H](CO)NC(=O)[C@H]([C@@H](C)CC)NC(=O)[C@@H]2CSSC[C@@H]3NC(=O)[C@H](C(C)C)NC(=O)[C@H](CCCCN)NC(=O)[C@H](CC(N)=O)NC(=O)[C@H](CCCCN)NC(=O)[C@@H]4CSSC[C@H](NC(=O)[C@H](CO)NC(=O)[C@H](CCC(=O)O)NC(=O)CNC(=O)[C@H](CSSC[C@H](NC(=O)CNC1=O)C(=O)N[C@@H](CO)C(=O)N4)NC(=O)[C@@H]1CCCN1C(=O)[C@H]([C@@H](C)CC)NC(=O)[C@H](C)NC(=O)[C@H](CCCNC(=N)N)NC(=O)[C@H](Cc1ccc(O)cc1)NC3=O)C(=O)N[C@@H](C(C)C)C(=O)N[C@@H](Cc1c[nH]c3ccccc13)C(=O)N[C@@H]([C@@H](C)CC)C(=O)N1CCC[C@H]1C(=O)N2` [CIRCULIN F] (cyclo(AAIGCSCKNKVCYRAIPCGESCVWIPCIS); disulfide 5-18, 7-22, 12-27) came in with an IC50 of 0.5 µM.
Take `CC[C@H](C)[C@@H]1NC(=O)[C@H](CCCCN)NC(=O)[C@H](CC(=O)O)NC(=O)[C@H](Cc2cnc[nH]2)NC(=O)[C@H](Cc2ccc(O)cc2)NC(=O)[C@@H]2CSSC[C@@H]3NC(=O)[C@@H]4CCCN4C(=O)[C@H]([C@@H](C)CC)NC(=O)[C@H](Cc4c[nH]c5ccccc45)NC(=O)[C@H](C(C)C)NC(=O)[C@@H]4CSSC[C@H](NC(=O)[C@H](CCCCN)NC(=O)[C@H](CSSC[C@H](NC(=O)[C@@H]5CCCN5C1=O)C(=O)NCC(=O)N[C@@H](CCC(=O)O)C(=O)N[C@@H](CO)C(=O)N4)NC(=O)[C@H](CC(N)=O)NC(=O)[C@H](Cc1ccccc1)NC(=O)[C@H](C(C)C)NC(=O)[C@H](CO)NC(=O)[C@H]([C@@H](C)O)NC(=O)[C@H](CC(C)C)NC3=O)C(=O)N[C@@H](CCC(=O)O)C(=O)N[C@@H](CC(N)=O)C(=O)N[C@@H](CCCCN)C(=O)N[C@@H](C(C)C)C(=O)N2` [CIRCULIN E] (cyclo(CENKVCYHDKIPCGESCVWIPCLTSVFNCK); disulfide 1-17, 6-22, 13-29): the midpoint of inhibition, the IC50, lay at 0.5 µM.
Take `CC[C@H](C)[C@@H]1NC(=O)[C@@H]2CSSC[C@@H]3NC(=O)[C@H](C(C)C)NC(=O)[C@H](CCCCN)NC(=O)[C@H](CO)NC(=O)[C@H](CCCCN)NC(=O)[C@@H]4CSSC[C@H](NC(=O)[C@H](CO)NC(=O)[C@H](CCC(=O)O)NC(=O)CNC(=O)[C@H](CSSC[C@H](NC(=O)CNC(=O)[C@H](C)NC(=O)[C@H](C(C)C)NC(=O)[C@H](CO)NC(=O)[C@H]([C@@H](C)O)NC1=O)C(=O)N[C@@H](CO)C(=O)N4)NC(=O)[C@@H]1CCCN1C(=O)[C@H]([C@@H](C)CC)NC(=O)CNC(=O)[C@H](CC(N)=O)NC(=O)[C@H](CCCNC(=N)N)NC(=O)[C@H](Cc1ccc(O)cc1)NC3=O)C(=O)N[C@@H](C(C)C)C(=O)N[C@@H](Cc1ccccc1)C(=O)N[C@@H]([C@@H](C)CC)C(=O)N1CCC[C@H]1C(=O)N2` [CIRCULIN C] (cyclo(AGCSCKSKVCYRNGIPCGESCVFIPCITSV); disulfide 3-17, 5-21, 10-26): the IC50 worked out at 0.5 µM.
The molecule `CC[C@H](C)[C@@H]1NC(=O)[C@H](CO)NC(=O)[C@H]([C@@H](C)O)NC(=O)[C@H](Cc2ccc(O)cc2)NC(=O)[C@@H]2CSSC[C@@H]3NC(=O)[C@H](C(C)C)NC(=O)[C@H](CCCCN)NC(=O)[C@H](CC(N)=O)NC(=O)[C@H](CCC(=O)O)NC(=O)[C@@H]4CSSC[C@H](NC(=O)[C@H](CO)NC(=O)[C@H](CCC(=O)O)NC(=O)CNC(=O)[C@H](CSSC[C@H](NC(=O)[C@H](CC(N)=O)NC(=O)[C@H](Cc5ccccc5)NC1=O)C(=O)N[C@@H](CCCCN)C(=O)N4)NC(=O)[C@@H]1CCCN1C(=O)[C@H]([C@@H](C)CC)NC(=O)[C@H](CCCCN)NC(=O)[C@H](CC(=O)O)NC(=O)[C@H](Cc1cnc[nH]1)NC(=O)[C@H](Cc1ccc(O)cc1)NC3=O)C(=O)N[C@@H](C(C)C)C(=O)N[C@@H](Cc1c[nH]c3ccccc13)C(=O)N[C@@H]([C@@H](C)CC)C(=O)N1CCC[C@H]1C(=O)N2` [CIRCULIN D] (cyclo(CENKVCYHDKIPCGESCVWIPCYTSIFNCK); disulfide 1-17, 6-22, 13-29) gave an IC50 of 0.5 µM. That is a sub-micromolar value.
